# Tests used:
# AGPase = experiment: Allosteric effect of 3-PGA on AGPase activity in oilseed rape embryo; format: biochemical, Brassica napus
# Method: The intermediates PEP and 3-PGA are known to allosterically affect enzymatic activity of ATP-dependent PFK and AGPase, respectively.
# […] 500 μl of common extraction buffer [10% (v/v) glycerol, 0.25% (w/v) BSA, 0.1% (v/v) Triton X-100, 50 mM Hepes/KOH, pH 7.5, 10 mM MgCl2, 1 mM EDTA, 1 mM EGTA, 1 mM benzamidine, 1 mM ε-aminocapronic acid, 1 mM phenylmethylsulfonyl fluoride (PMSF), […], 1 mM dithiothreitol (DTT)] and c. 10 mg polyvinyl pyrrolidone. PMSF was added just before extraction. DTT was omitted when using peroxidase-based or MTT-based indicator reactions (MTT: methylthiazolyldiphenyl-tetrazolium bromide). A 96-head liquid handling robot (Evolution P3, Perkin Elmer, Wellesey, Mass., USA) was used to perform subsequent dilutions of these initial extracts and to load extracts on to 96-well micro plates. During this process micro plates were maintained at 4° C. using peltier cooled blocks. […] The concentration of the products of these stopped reactions (NAD+, NADH, NADPH or glycerol-3-phosphate) was then determined using cycling assays. […] Nitrate reductase and glutamine synthetase were determined using end point assays (Gibon et al, 2004, supra). […] After measuring PK activity at pH 8.0 and at pH 6.7, the plastidic and cytosolic activities were calculated accordingly.
# ATP-dependent PFK = experiment: Allosteric effect of PEP on ATP-dependent PFK activity in oilseed rape embryo; format: biochemical, Brassica napus
# [1] = tested on: PPi-PFKs of Thermoproteus tenax, Naegleria fowleri, Methylococcus capsulatus or Amycolatopsis methanolica; conditions: Reshetnikov et al. 2008; Alves et al.; cited from earlier work
Compound,effect on enzymatic activity of AGPase (AGPase),effect on enzymatic activity of ATP-dependent PFK (ATP-dependent PFK),inhibition of PPi-PFK by PEP [1]
"O=C(O)[C@H](O)COP(=O)(O)O [3-PGA, 3-phosphoglycerate]",clear activity changes,,
"C=C(OP(=O)(O)O)C(=O)O [PEP, phosphoenolpyruvate]",,clear activity changes,not inhibited

# From patent US20170204426A1, “MODIFIED BRASSICA PLANTS WITH INCREASED SEED OIL CONTENT” (BROOKHAVEN SCIENCE ASSOCIATES, LLC, priority 2014, published 2017)
